Experimental findings from ChEMBL document CHEMBL1201862, “PubChem BioAssay data set” (2004) are described below.

For one assay, the system named is Danio rerio. Description: In Vivo Angiogenesis Dose-Response Confirmation. [Related pubchem assays: 732 (Assay preceding this confirmatory assay.)]. The format is functional, organism-based.
The target of a further assay is Transthyretin (Homo sapiens, UniProt P02766). Description: Luminescence-based cell-based high throughput dose response assay to identify activators of Transthyretin (TTR) transcription. It counts as functional.
Assay [1] in a line: P. falciparum Dd2 growth inhibitors, dose response, SYBR Green, cherry-picked samples (AID 1159567). The format is functional, cell-based.
The nature of assay [2]: HepG2 cell cytotoxicity, dose response, cytotoxicity control, cherry-picked samples (AID 1159577). The format is functional, cell-based.
A short description of assay [3]: Plasmodium falciparum Dd2 Sybr green parasite growth Measured in Cell-Based and Microorganism Combination System Using Plate Reader - 2153-01_Inhibitor_Dose_DryPowder_Activity_Set3. It counts as functional.
Assay [4] in a line: P. falciparum ATP4 D1247Y mutant growth inhibitors, dose response, NITD609-resistant line, SYBR Green, dry powder (AID 1159571).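 Note: parasites synchronized at ring stage by sorbitol before testing.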 It counts as functional, cell-based.
Assay [5] is described as follows: HepG2 cell cytotoxicity, dose response, cytotoxicity control, plate reader, dry powder samples (AID 1159569).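 Note: inhibitor potency with signal falling toward the positive control level.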 The format is functional, cell-based.
A short description of assay [6]: P. falciparum Dd2 growth inhibitors, dose response, SYBR Green, dry powder samples, set 9 (AID 1159568). The format is functional, cell-based.
Assay [7] in a line: P. falciparum 3D7-ScDHODH growth inhibitors, dose response, SYBR Green, dry powder samples (AID 1159570).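 Note: parasite growth measured after 72 hours of compound exposure.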 It counts as functional, cell-based.
Assay [8] can be described thus: P. falciparum Dd2 growth inhibitors, dose response, SYBR Green, dry powder samples (AID 1159566).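 Note: potency for growth inhibition with lower SYBR green DNA signal.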 It counts as functional, cell-based.
Assay [9] has as its target G-protein coupled receptor 183 (Homo sapiens, UniProt P32249). Description: SAR confirmation of small molecule antagonists of the EBI2 receptor via a luminescent beta-arrestin assa. The format is functional.
The nature of assay [10]: A549 cell cytotoxicity, dose response, cytotoxicity control, plate reader, dry powder, set 7 (AID 743318). The format is functional, cell-based.
Assay [11] is described as follows: RKO cell viability reduction, dose response, CellTiter-Glo luminescence (AID 1117322). It counts as functional.
Assay [12] can be described thus: HCT116 cell viability decrease, GSK3B pretreatment – CellTiter-Glo, IC50, dose response (AID 1117339). The note with it: HCT-116. The format is functional.
A short description of assay [13]: cytotoxicity toward Colo320 cells – cell-based, CellTiter-Glo luminescence, IC50, dose response (AID 1117334). The format is functional. The note with it: COLO 320.
A short description of assay [14]: cytotoxicity toward HCT116 cells – cell-based, CellTiter-Glo luminescence, IC50, dose response (AID 1117332). It counts as functional. The settings on record: HCT-116.
A short description of assay [15]: cytotoxicity toward HT-29 cells – cell-based, CellTiter-Glo luminescence, IC50, dose response (AID 1117330). It counts as functional.
Assay [16] can be described thus: SNU-C1 cell viability reduction, dose response, CellTiter-Glo luminescence (AID 1117323). It counts as functional, cell-based.
Assay [17] is described as follows: Concentration-dependent survival of SW480 colon cancer line, luminescence detection with CellTiter-Glo, half-maximal inhibitory concentration (AID 1117338). The format is functional.
Assay [18] is described as follows: CellTiter-Glo luminescent dose response of DLD-1 viability loss (AID 1117352). The format is functional.
Assay [19] in a line: Dose-response inhibition of insulin secretion in a rat insulinoma line at 5 mM glucose (AID 1117331). It counts as functional, cell-based. The note with it: INS-1E.

Structures are written as SMILES. Activity calls are given as the source filed them.

Sequence of G-protein coupled receptor 183 (P32249 whole entry): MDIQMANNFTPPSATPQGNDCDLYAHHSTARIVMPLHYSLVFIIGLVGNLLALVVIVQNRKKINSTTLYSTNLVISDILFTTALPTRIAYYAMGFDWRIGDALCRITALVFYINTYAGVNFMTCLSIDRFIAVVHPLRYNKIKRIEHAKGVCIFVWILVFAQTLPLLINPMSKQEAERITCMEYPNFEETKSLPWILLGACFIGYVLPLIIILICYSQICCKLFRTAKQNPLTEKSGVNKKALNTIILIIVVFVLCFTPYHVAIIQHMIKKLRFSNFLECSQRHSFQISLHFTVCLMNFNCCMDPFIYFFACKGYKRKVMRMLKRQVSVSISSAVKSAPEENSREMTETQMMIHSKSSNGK

`O=C1Nc2ccc(F)cc2/C1=C1/Nc2ccccc2/C1=N\OCCN1CCNCC1`: the 50% inhibitory concentration (IC50) in the assay with Danio rerio is 13.1 µM (not active).

For the compound `Cc1cc(C)n(CC(=O)n2c(C)c(C)c3ccccc32)n1`, at Transthyretin, the EC50 was > 167 µM (inactive).

In the case of `O=C(Nc1ccc2c(c1)OCO2)N1C[C@@H]2N[C@H](C1)[C@@H]2c1ccc(C=Cc2ccccc2)cc1`, the values for the half-maximal activity concentration (AC50) in assay [1] and in [2] were 5.46 µM (active) and 11.2 µM (active), respectively.

For `CO[C@@H]1CN(C)C(=O)c2ccc(NC(=O)NC(C)C)cc2OC[C@@H](C)N(Cc2ccccc2)C[C@H]1C`, the half-maximal activity concentration (AC50) is 1.4 µM (active) in assay [3]; 1.78 µM (active) in [1]; 1.9 µM (active) in assay [4]; > 100 µM (inactive) in [5]; 0.493 µM (active) in assay [6]; 5.13 µM (active) in assay [7]. Besides, in [8], the concentration at half-maximal activity (AC50) is 0.299 µM (active).

As to `O=C(/C=C/c1ccc(F)cc1)N1CCN(S(=O)(=O)c2ccc3ccccc3c2)CC1`, in assay [9], the IC50 was 0.0212 µM (active).

For `Cc1cccc(OCCn2c(=S)[nH]c3cc(C(F)(F)F)ccc32)c1`, in assay [10], the half-maximal activity concentration (AC50) is 36 µM (active).

`Cc1c(O)cc2c(c1C)O[C@](C)(CCC[C@H](C)CCC[C@H](C)CCCC(C)C)CC2`: the IC50 in assay [11], in assay [12], in [13], in assay [14], in assay [15] and in assay [16] was > 20 µM (inactive) in each case. Further, the IC50 in assay [17] and in [18] was > 20 µM (inactive) each time.

As for `Cc1ccc(O)c([C@H](CCN(C(C)C)C(C)C)c2ccccc2)c1` [TOLTERODINE], the IC50 in [19] was > 33.3 µM (inactive).
